In patent US8273773B2 (priority 2008, dated 2012):
pIC50: −log10 of the molar value.

How the values were obtained:
[1] = molecular target: T1, HCV polymerase (NS5B570n-Con1) (Hepatitis C virus genotype 1b, UniProt Q9WMX2); experiment: biochemical; parameters: species or system HCV Con1 strain;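 also: recombinant His-tagged enzyme from E. coli, radiolabeled nucleotide incorporation into acid-insoluble RNA read by scintillation after filtration, no-enzyme background subtracted, activity relative to positive control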
T1 construct: contains a 21 amino acid deletion at the C-terminus relative to the full-length HCV polymerase; 6-histidine (N); made in house; host or cells: E. coli strain BL21(DE) pLysS (pET17b)

[2] = IC50 HCV NS5B RNA Polymerase Assay, values without asterisk, 20 nM NS5B570n-Con1 enzyme, 20 nM cIRES RNA template
[3] = IC50 HCV NS5B RNA Polymerase Assay (values with asterisk), values with asterisk: cIRES RNA template, 3 nM NS5B570n-Con1

| Compound | melting point [°C] | pIC50 [1, 2] | pIC50 [1, 3] |
| --- | --- | --- | --- |
| CS(=O)(=O)Nc1ccc(/C=C/c2cc(-c3ccc[nH]c3=O)cc(C3(CO)CC3)c2)cc1 | 148 to 150 | – | – |
| COc1c(/C=C/c2ccc(NS(C)(=O)=O)cn2)cc(-c2ccc[nH]c2=O)cc1C(C)(C)C | 293 to 295 | – | – |
| COc1c(/C=C/c2ccc(NS(C)(=O)=O)cc2)cc(-c2cc(F)cn(COC(=O)[C@@H](N)C(C)C)c2=O)cc1C(C)(C)C | 188 to 190 | – | – |
| COc1c(/C=C/c2ccc(NS(C)(=O)=O)cc2)cc(-c2cc(F)cn(COP(=O)(O)O)c2=O)cc1C(C)(C)C | 175 to 178 | – | – |
| CC(C)(C)c1ccc(O)c(-c2ccc[nH]c2=O)c1 [I-2] | 211 to 212 | 5.45 | – |
| Cc1cc(-c2ccc[nH]c2=O)cc(C(C)(C)C)c1 [I-3] | 224 to 225 | 6.28 | – |
| CCOc1ccc(-c2ccc[nH]c2=O)cc1C(C)(C)C [I-5] | 201 to 202 | 5.33 | – |
| CC(C)(C)c1cc(-c2ccc[nH]c2=O)ccc1OC(F)F [I-6, 3-(3-tert-Butyl-4-difluoromethoxy-phenyl)-1H-pyridin-2-one] | 174 to 175 | 5.59 | – |
| Cc1cc(-c2cc(C)c[nH]c2=O)cc(C(C)(C)C)c1 [I-7] | 212 to 213 | 5.49 | – |
| Cc1cc(-c2cc(Cl)c[nH]c2=O)cc(C(C)(C)C)c1 [I-8] | 232 to 233 | 5.71 | – |
| CCC(C)(C)c1cc(Br)c(O)c(-c2ccc[nH]c2=O)c1 [I-9] | 257.2 to 257.7 | 5.51 | – |
| CC(C)(C)c1cc(CO)c(O)c(-c2ccc[nH]c2=O)c1 [I-10] | 167 to 168 | 5.80 | – |
| Cc1cc(C(C)(C)C)cc(-c2ccc[nH]c2=O)c1O [I-11] | 207 to 208.5 | 6.47 | – |
| CC(C)(C)c1cc(Br)c(O)c(-c2ccc[nH]c2=O)c1 [I-13] | 243.4 to 246.2 | 6.44 | – |
| CCc1cc(C(C)(C)C)cc(-c2ccc[nH]c2=O)c1O [I-14] | 224.2 to 226.2 | 6.48 | – |
| CC(C)(C)c1cc(-c2ccccc2)c(O)c(-c2ccc[nH]c2=O)c1 [I-15] | 235.8 to 237 | 5.53 | – |
| CC(C)(C)c1cc(Cl)c(O)c(-c2ccc[nH]c2=O)c1 [I-16] | 211.4 to 213.5 | 6.27 | – |
| CC(C)(C)c1cc(Cc2ccccc2)c(O)c(-c2ccc[nH]c2=O)c1 [I-17] | 236 to 237 | 6.53 | – |
| COc1c(C(=O)NC2CC2)cc(-c2ccc[nH]c2=O)cc1C(C)(C)C [I-19] | 223 to 224 | 5.79 | – |

| Compound | melting point [°C] | pIC50 [1, 2] | pIC50 [1, 3] |
| --- | --- | --- | --- |
| CC(C)(C)c1cc(CCc2ccc(F)cc2)c(O)c(-c2ccc[nH]c2=O)c1 [I-20] | 178 to 179 | 6.42 | – |
| COc1c(CCc2ccc(F)cc2)cc(-c2ccc[nH]c2=O)cc1C(C)(C)C [I-21] | 157 to 158 | 7.05 | – |
| COc1c(CCC(=O)O)cc(-c2ccc[nH]c2=O)cc1C(C)(C)C [I-22] | 180.2 to 181.8 | 6.48 | – |
| COc1c(O)cc(-c2ccc[nH]c2=O)cc1C(C)(C)C [I-23] | 214 to 215 | 5.93 | – |
| COc1c(NC(=O)c2ccc(N)cc2Cl)cc(-c2ccc[nH]c2=O)cc1C(C)(C)C [I-25] | 226 to 228 | 7.51 | – |
| COc1cc(-c2ccc[nH]c2=O)cc(C(C)(C)C)c1OC [I-26] | 206.3 to 207.1 | 6.06 | – |
| COc1c(C)cc(-c2ccc[nH]c2=O)cc1C(C)(C)C [I-29] | 176 to 178 | 6.28 | – |
| CCc1cc(-c2ccc[nH]c2=O)cc(C(C)(C)C)c1OC [I-30] | 213 to 214 | 6.14 | – |
| CC(C)(C)c1cc(Oc2ccccc2)cc(-c2ccc[nH]c2=O)c1 [I-45, 3-(3-tert-Butyl-5-phenoxy-phenyl)-1H-pyridin-2-one] | 90 to 91 | 6.10 | – |
| CC(C)(C)c1cc(Cc2ccccc2)cc(-c2ccc[nH]c2=O)c1 [I-46, 3-(3-Benzyl-5-tert-butyl-phenyl)-1H-pyridin-2-one] | 180 to 181 | 6.27 | – |
| COc1c(Cc2ccccc2)cc(-c2ccc[nH]c2=O)cc1C(C)(C)C [I-48] | 202.6 to 204.3 | 6.28 | – |
| COc1c(C(=O)c2cccc(F)c2)cc(-c2ccc[nH]c2=O)cc1C(C)(C)C [I-49] | 209 to 210 | 7.15 | – |
| COc1c(C(=O)c2ccc(F)cc2)cc(-c2ccc[nH]c2=O)cc1C(C)(C)C [I-50] | 203 to 205 | 7.28 | – |
| CC(C)(C)c1cc(CCc2ccc(NS(C)(=O)=O)cc2)c(O)c(-c2ccc[nH]c2=O)c1 [I-51, N-(4-{2-[5-tert-Butyl-2-hydroxy-3-(2-oxo-1,2-dihydro-pyridin-3-yl)-phenyl]-ethyl}-phenyl)-methanesulfonamide] | 96.4 to 135.6 | 8.00 | – |
| COc1c(C(=O)c2cc(F)cc(F)c2)cc(-c2ccc[nH]c2=O)cc1C(C)(C)C [I-52] | 197.1 to 198.6 | 6.84 | – |
| Cc1cc(-c2cc(F)c[nH]c2=O)cc(C(C)(C)C)c1 [I-53] | 244 to 246 | 5.71 | – |
| COc1c(C(=O)c2cccc(O)c2)cc(-c2ccc[nH]c2=O)cc1C(C)(C)C [I-54] | 145 to 148 | 8.05 | – |
| CS(=O)(=O)Nc1ccc(/C=C/c2cc(-c3cc(F)c[nH]c3=O)cc(C3(Cl)CC3)c2)cc1 [I-273, N-(4-{(E)-2-[3-(1-Chloro-cyclopropyl)-5-(5-fluoro-2-oxo-1,2-dihydro-pyridin-3-yl)-phenyl]-vinyl}-phenyl)-methanesulfonamide] | – | – | 8.52 |
| CS(=O)(=O)Nc1ccc(/C=C/c2cc(-c3ccc[nH]c3=O)cc(C3(Cl)CC3)c2)cc1 [I-274, N-(4-{(E)-2-[3-(1-Chloro-cyclopropyl)-5-(2-oxo-1,2-dihydro-pyridin-3-yl)-phenyl]-vinyl}-phenyl)-methanesulfonamide] | – | – | 8.70 |

| Compound | melting point [°C] | pIC50 [1, 2] | pIC50 [1, 3] |
| --- | --- | --- | --- |
| CS(=O)(=O)Nc1ccc(/C=C/c2cc(-c3ccc[nH]c3=O)cc(C3(C(F)F)CC3)c2)cc1 [I-275, N-(4-{(E)-2-[3-(1-Difluoromethyl-cyclopropyl)-5-(2-oxo-1,2-dihydro-pyridin-3-yl)-phenyl]-vinyl}-phenyl)-methanesulfonamide] | – | – | 9.00 |
| COCCOc1cc(NS(C)(=O)=O)ccc1C(=O)Nc1cc(-c2ccc[nH]c2=O)cc(C(C)(C)C)c1OC [I-276, N-[3-tert-Butyl-2-methoxy-5-(2-oxo-1,2-dihydro-pyridin-3-yl)-phenyl]-4-methanesulfonylamino-2-(2-methoxy-ethoxy)-benzamide] | – | 7.70 | – |
| COc1c(NC(=O)c2ccc(NC(C)=O)cc2)cc(-c2ccc[nH]c2=O)cc1C(C)(C)C [I-277] | – | 6.45 | – |
| COc1c(NC(=O)c2ccc(N)c(C)c2)cc(-c2ccc[nH]c2=O)cc1C(C)(C)C [I-278] | – | 7.85 | – |
| COc1c(NC(=O)c2ccc(N)cc2C(F)(F)F)cc(-c2ccc[nH]c2=O)cc1C(C)(C)C [I-279] | – | 6.98 | – |
| COc1c(NC(=O)c2ccc(N)cc2F)cc(-c2ccc[nH]c2=O)cc1C(C)(C)C [I-280] | – | 8.00 | – |
| COc1c(NC(=O)c2ccc(NS(C)(=O)=O)cc2F)cc(-c2ccc[nH]c2=O)cc1C(C)(C)C [I-281] | – | 8.15 | – |
| COc1c(NC(=O)c2ccc(NS(C)(=O)=O)cc2C)cc(-c2ccc[nH]c2=O)cc1C(C)(C)C [I-282] | – | 7.89 | – |
| COc1c(NC(=O)c2ccc(N)cn2)cc(-c2ccc[nH]c2=O)cc1C(C)(C)C [I-283] | – | 8.05 | – |
| COc1c(NC(=O)c2ccc(N)cc2OCCN(C)C)cc(-c2ccc[nH]c2=O)cc1C(C)(C)C [I-284] | – | 5.20 | – |
| COc1c(NC(=O)c2ccc(NS(C)(=O)=O)cc2OCCN(C)C)cc(-c2ccc[nH]c2=O)cc1C(C)(C)C [I-285] | – | 6.83 | – |
| COc1c(NC(=O)c2ccc(NS(C)(=O)=O)cc2)cc(-c2ccc(C)[nH]c2=O)cc1C(C)(C)C [I-286] | – | 7.72 | – |
| COc1c(CCc2ccc(NS(C)(=O)=O)cc2)cc(-c2ccc[nH]c2=O)c(F)c1C(C)(C)C [I-287, N-(4-{2-[3-tert-Butyl-4-fluoro-2-methoxy-5-(2-oxo-1,2-dihydro-pyridin-3-yl)-phenyl]-ethyl}-phenyl)-methanesulfonamide] | – | 8.05 | – |
| COc1c(/C=C/c2ccc(NS(C)(=O)=O)cc2)cc(-c2ccc[nH]c2=O)cc1C(C)(C)OC [I-289, N-(4-{(E)-2-[2-Methoxy-3-(1-methoxy-1-methyl-ethyl)-5-(2-oxo-1,2-dihydro-pyridin-3-yl)-phenyl]-vinyl}-phenyl)-methanesulfonamide] | – | – | 8.70 |
| COc1c(/C=C/c2ccc(NS(C)(=O)=O)cc2)cc(-c2cc(Cl)c[nH]c2=O)cc1C1(C)COC1 [I-291] | – | – | 8.70 |
| COc1c(/C=C/c2ccc(NS(C)(=O)=O)cc2)cc(-c2cc(Cl)c[nH]c2=O)cc1C1CC1 [I-292, N-(4-{(E)-2-[5-(5-Chloro-2-oxo-1,2-dihydro-pyridin-3-yl)-3-cyclopropyl-2-methoxy-phenyl]-vinyl}-phenyl)-methanesulfonamide] | – | – | 7.54 |
| CN(C(=O)c1ccc(NS(C)(=O)=O)cc1)c1cc(-c2ccc[nH]c2=O)cc(C(C)(C)C)c1 [I-293, N-[3-tert-Butyl-5-(2-oxo-1,2-dihydro-pyridin-3-yl)-phenyl]-4-methanesulfonylamino-N-methyl-benzamide] | – | 8.15 | – |
| CCOc1nc(-c2cc(-c3ccc[nH]c3=O)cc(C(C)(C)C)c2OC)cc2ccc(NS(C)(=O)=O)cc12 [II-9, N-{3-[3-tert-Butyl-2-methoxy-5-(2-oxo-1,2-dihydro-pyridin-3-yl)-phenyl]-1-ethoxy-isoquinolin-7-yl}-methanesulfonamide] | – | 8.52 | – |
